According to patent US20030109418A1, “Methods for identifying compounds for inhibition of neoplastic lesions, and pharmaceutical compositions containing such compounds” (priority 1999, published 2003):
Counter-ions that a name gives are not always drawn.

Legend:
[1] = tested on: PC-3; assay: Growth inhibition, neutral red assay, PC-3; assay type: cell-based, human; conditions: free base, five days
Description: (§1) Compound I's activity is not confined to activity against colon cancer cell lines or animal models of colon cancer. It has a broad range of anti-neoplastic effects in various neoplastic cell lines. Various types of human cancer cell lines were propagated under sterile conditions in RPMI 1640 medium with 10% fetal bovine serum, 2 mM L-glutamine and sodium bicarbonate. To determine growth inhibitory effects of Compound I, cells were seeded in 96-well plates at a density of 1000 cells per well. Twenty-four hours after plating, the cells were dosed with various concentrations of the free base of Compound I solubilized in DMSO (final concentration 0.1%). The effect of the drug on tumor cell growth was determined using the neutral red cytotoxicity assay following five days of continuous treatment. Neutral red is a dye that is selectively taken up by viable cells by an ATP-dependent transport mechanism.

[2] = tested on: HT-29; assay: Growth inhibition, neutral red assay, HT-29; assay type: cell-based, human; conditions: free base, five days
Description: as §1

[3] = tested on: PKG activity in SW480 colon cancer cells; assay: PKG assay of lysates of drug-treated SW480 cells; assay type: cell-based, human; conditions: SW480 treated 48 hrs; exisulind 200, 400, 600 μM; E4021 0.1, 1, 10 μM; with and without added cGMP
Excerpt: That sequence is known and described in the literature below. […] One way to bind the PDE5 sequences to a solid phase is to express those sequences as a fusion protein of the PDE5 sequence and one member of an amino acid binding pair, and chemically link the other member of that amino acid binding pair to a solid phase (e.g., beads). One binding pair that can be used is glutathione S-transferase (“GST”) and glutathione (“GSH”), with the GST being expressed as a fusion protein with the PDE5 sequence described above, and the GSH bound covalently to the solid phase. In this fashion, the PDE5 sequence/GST fusion protein can be bound to a solid phase simply by passing a solution containing the fusion protein over the solid phase, as described below.
To assay a liquid sample believed to contain PKG using the PDE5-bound solid phase described above, the sample and the solid phase are mixed with phosphorylation buffer containing ^32P-γ-ATP. The solution is incubated for 30 minutes at 30° C. to allow for phosphorylation of the PDE5 sequence by PKG to occur, if PKG is present. […]
For each control or drug cell lysate sample to be evaluated, the reaction is started by adding phosphorylation buffer containing 10 μCi ^32P-γ-ATP solution (200 μM ATP, 4.5 mM MgCl; 5 mM KH2PO4; 5 mM K2HPO4;) to each mixture. […]

[4] = tested on: premalignant lesions in mouse mammary gland organ culture; assay: Mammary gland organ culture model; assay type: cell-based; on mammary gland organ culture: key: −: Not active; +: Slightly active; ++: Moderately active; +++: Strongly active; ++++: Highly active
[5] = Safety evaluation in exisulind clinical trials; assay type: in vivo
Description: In these exisulind trials and several others involving the drug in other indications, safety was evaluated by monitoring adverse events (AEs), clinical laboratory tests (hematology, serum chemistry, and urinalysis), vital signs (blood pressure, pulse rate, respiratory rate, temperature, and weight), physical examination, and upper endoscopy.

Row | SMILES | GI50 ([1]; Homo sapiens, PC-3, 120 h) [µM] | GI90 μM, PC-3 [1] [µM] | GI50 ([2]; Homo sapiens, HT-29, 120 h) [µM] | GI90 μM, HT-29 [2] [µM] | PKG activity relative to control [3] | inhibition of the formation of premalignant lesions ([4]; mammary gland organ culture) | Mammary Gland Organ Culture ([4]; qualitative activity profile) | apoptosis rates in paired biopsies of polyp and normal colonic tissues ([5]; APC patients) | toxicities in clinical trials ([5]; human, in vivo) | maximum tolerated dose (MTD) ([5]; patients with intact colons) [mg] | maximum tolerated dose (MTD) ([5]; patients with subtotal colectomy) [mg] | maximum tolerated dose (MTD) ([5]; pediatric patients) [mg]
1 | CC1=C(CC(=O)NCc2ccccc2)c2cc(F)ccc2/C1=C\c1ccncc1 [Compound I, (Z)-5-fluoro-2-methyl-(4-pyridylidene)-3-(N-benzyl)indenylacetamide hydrochloride] | 1.7 | 82.5 | 2.1 | 8.0 | – | – | – | – | – | – | – | –
2 | CC1=C(CC(=O)O)c2cc(F)ccc2/C1=C\c1ccc(S(C)(=O)=O)cc1 [Exisulind, 5-fluoro-2-methyl-1-(p-methylsulfonylbenzylidene)-3-indenylacetic acid] | – | – | – | – | causes PKG activity to increase in a dose-dependent manner | effectively inhibit the formation of premalignant lesions | +++ | increased apoptosis rates in polyp, but not normal colonic tissues | did not demonstrate any blood dyscrasia, dose-limiting vomiting, or neurological or renal toxicities | 400 | 600 | 350
